# Results taken from ChEMBL document CHEMBL5137094, “Construction of Covalent Bisubstrate Inhibitor of Protein Kinase Reacting with Cysteine Residue at Substrate-Binding Site” (J Med Chem, 2022).
# Activity calls are given as the source filed them. The calls are words filed in the database; no cut-off is given here.
# Assays:
# [1] = target: T1, cAMP-dependent protein kinase catalytic subunit alpha (Homo sapiens, UniProt P17612); assay: Binding affinity to recombinant human spiked PKAC-alpha in human HeLa cells assessed as covalent compound-protein adduct formation by measuring multiple fluorescent band formation at 0.15 to 1 uM incubated for 1 hr by 5-TAMRA dye based Western blot analysis; type: cell-based; details: dose 0.15-1 µM
# [2] = Drug uptake in live human HeLa cells assessed as drug penetration by measuring increase in fluorescence intensity at 5 uM incubated for 2 hrs by PKAc antibody immunostaining based Western blot analysis; type: ADME, cell-based
# [3] = Drug uptake in human HeLa cell lysates assessed as drug penetration by measuring increase in fluorescence intensity at 1.5 uM incubated for 2 hrs by PKAc antibody immunostaining based Western blot analysis; type: ADME, subcellular
# [4] = target: T1, cAMP-dependent protein kinase catalytic subunit alpha; assay: Binding affinity to recombinant human PKAC-alpha in human HeLa cells assessed as increase in intensity of fluorescent labeled bands at 5 uM incubated for 2 hrs in presence of forskolin by Western blot analysis; type: cell-based
# [5] = Drug uptake in live human HeLa cells assessed as drug internalization at 5 uM incubated for 15 mins to 2 hrs in presence of forskolin by live cell imaging analysis; type: ADME, cell-based; details: time 15-120 min
# [6] = Drug uptake in live human HeLa cells assessed as drug internalization at 5 uM incubated for 15 mins to 2 hrs in absence of forskolin by live cell imaging analysis; type: ADME, cell-based; details: time 15-120 min
# [7] = Drug uptake in endosome of human HeLa cells assessed as punctate perinuclear pattern formation at 1 to 5 uM incubated for 15 mins to 2 hrs by live cell imaging analysis; type: ADME, subcellular; details: dose lower 1 µM, time lower 15 min, dose upper 5 µM, time upper 120 min
# [8] = Drug uptake in cytoplasm of human HeLa cells at 1 to 5 uM incubated for 15 mins to 2 hrs by live cell imaging analysis; type: ADME, subcellular; details: dose lower 1 µM, time lower 15 min, dose upper 5 µM, time upper 120 min
# [9] = Drug uptake in cell membrane of human HeLa cells assessed as observation of cell plasma membrane protrusions at 1 to 5 uM incubated for 15 mins to 2 hrs by live cell imaging analysis; type: ADME, cell membranes; details: dose lower 1 µM, time lower 15 min, dose upper 5 µM, time upper 120 min
# [10] = Drug uptake in endosome of human HeLa cells assessed as punctate perinuclear pattern formation at 1 to 5 uM incubated for 15 mins to 2 hrs in presence of forskolin by live cell imaging analysis; type: ADME, subcellular; details: dose lower 1 µM, time lower 15 min, dose upper 5 µM, time upper 120 min
# [11] = Drug uptake in cytoplasm of human HeLa cells at 1 to 5 uM incubated for 15 mins to 2 hrs in presence of forskolin by live cell imaging analysis; type: ADME, subcellular; details: dose lower 1 µM, time lower 15 min, dose upper 5 µM, time upper 120 min
# [12] = Drug uptake in cell membrane of human HeLa cells assessed as observation of cell plasma membrane protrusions at 1 to 5 uM incubated for 15 mins to 2 hrs in presence of forskolin by live cell imaging analysis; type: ADME, cell membranes; details: dose lower 1 µM, time lower 15 min, dose upper 5 µM, time upper 120 min
# [13] = Drug uptake in live human HeLa cells assessed as increase in fluorescence intensity at 1 to 5 uM by microplate reader analysis; type: ADME, cell-based; details: TDE = time-dependent effect, dose lower 1 µM, time lower 15 min, dose upper 5 µM, time upper 120 min
SMILES,Activity [1],Drug uptake [2],Drug uptake [3],Activity [4],Drug uptake [5],Drug uptake [6],Drug uptake [7],Drug uptake [8],Drug uptake [9],Drug uptake [10],Drug uptake [11],Drug uptake [12],Drug uptake [13]
CC[C@H](C)[C@H](NC(=O)CCC(=O)N[C@@H](CCCCNC(=O)[C@@H](CCCNC(=N)N)NC(=O)CCCCCCCC(=O)N1CCN(c2ncnc3[nH]ccc23)CC1)C(=O)N[C@H](CCCNC(=N)N)C(=O)N[C@H](CCCNC(=N)N)C(=O)N[C@H](CCCCNC(=O)CCCCC[N+]1=C(/C=C/C=C/C=C2\N(C)c3ccc4ccccc4c3C2(C)C)C(C)(C)c2c1ccc1ccccc21)C(N)=O)C(=O)NCC(=O)CF,Active,Active,Active,Active,–,–,–,–,–,–,–,–,–
CC[C@H](C)[C@H](NC(=O)CCC(=O)N[C@@H](CCCCNC(=O)[C@@H](CCCNC(=N)N)NC(=O)CCCCCCCC(=O)N1CCN(c2ncnc3[nH]ccc23)CC1)C(=O)N[C@H](CCCNC(=N)N)C(=O)N[C@H](CCCNC(=N)N)C(=O)N[C@H](CCCCNC(=O)CCCCC[N+]1=C(/C=C/C=C/C=C2\N(C)c3ccccc3C2(C)C)C(C)(C)c2ccccc21)C(N)=O)C(=O)NCC(=O)CF,–,–,–,–,Active,Active,Active,Active,Active,Active,Active,Active,Tde
